Test results reported in patent publication US7220784B2, “Substituted stilbenes and their reactions” (priority 2000, dated 2007).
Where two headings read alike, the source gives them in different places.

What was measured:
A2780 = experiment: Cytotoxicity/growth inhibition assay (MTT), A2780; assay type: cell-based
In short: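 MTT cytotoxicity/growth-inhibition assay in human cell lines including A2780, A2780/ADR, H460 and HUVEC.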

tubulin = tested on: T1, tubulin; experiment: Inhibition of tubulin assembly; assay type: biochemical; details: concentration required to reduce assembly of tubulin by 50%
T1 construct: other: concentration required to reduce assembly of tubulin by 50%
Method: (§1) The following assays (1–5) were carried out as described in our paper (Woods, et al, British Journal of Cancer, 71, 705–711 (1995)). In addition to the cell lines described in this paper, other established human cell lines (K562, HUVEC, H460, BE, H529, and HT29) were used in the cytotoxicity/growth inhibition assay. • (1) Inhibition of tubulin assembly. The figure quoted is the concentration required to reduce assembly of tubulin by 50%. Tubulin assembly is monitored by light scatter/absorption at 350 nm.

HUVEC = experiment: Growth inhibition studies using HUVEC; assay type: cell-based, human
Method: as §1
(§2) (2) Competition for the colchicine binding site on tubulin. The figure quoted represents the % of ^3H-colchicine bound following co-incubation of test compound and ^3H-cochicine with isolated tubulin. Where ester pro-drugs were used the experiments were carried out in the presence and absence of porcine liver esterase. • (3) Cytotoxicity/growth inhibition assay. This was carried out by the MTT assay. • (4) Permeability (shape-change) assay in endothelial cells. This was carried out using a method based on that of Watts et al. (Anticancer Res., 17, 71–75, (1997)). This involved the diffusion of a fluorescently labelled dextran through a barrier of endothelial cells (HUVEC) grown to confluence on a porous membrane. The effect of agents to alter the shape of these cells results in an increase in the permeability of the cells to the dye. The figure represents the increase in permeability over control cultures when drug is added (30 minutes, 1 mM.). • (5) Experiments to study the anti-vascular effects of these agents were carried out as described previously by our group. (Zhao et al, European Journal of Nuclear Medicine, 26, 231–238 (1999)). The anti-vascular effects of the agents were monitored by either positron emission tomography (PET) or by histologogical examination following treatment of mice bearing T50:80 murine breast tumours, or H460 human lung tumours. • (6) Anti-tumour efficacy of agents was determined in xenografts of H460 human lung cancer. Animals (n=5) were trated either with 5 daily injections and tumour size measured with time following treatment. • (7) The pharmacokinetic profile of agents was determined in mice following injection with drug. Blood was taken at various times following treatment and analysed by HPLC with UV detection. The HPLC conditions were isocratic using a 5 micron C18 BDS column (150×4.6) ad eluting with 75% MeOH in water with a detection wavelength of 290 nm. […] (AND(P)H:quinone oxidoreductace, EC 1.6.99.2). DT-diaphorase is an enzyme over-expressed in a number of human tumours. […] This two-electron reducing enzyme can be used to selectively activate prodrugs within cancers which over-express the enzyme.

[1] = tested on: P388 murine leukaemia cell line; experiment: Cytotoxicity/growth inhibition assay (MTT), P388; assay type: cell-based
In short: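 Growth inhibition of P388 murine and K562 human leukaemia cells measured by MTT assay.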

[2] = tested on: colchicine binding site on tubulin; experiment: Competition for the colchicine binding site on tubulin
[3] = tested on: H460 human lung cell line; experiment: Cytotoxicity/growth inhibition assay (MTT), H460; assay type: cell-based
Method: as §1, §2

[4] = tested on: diaphorase null H596 cell line; experiment: Cytotoxicity/growth inhibition assay (MTT), H596; assay type: cell-based; details: for H596/H460: ratio of IC50, diaphorase null H596 over H460
Method: as §1
(2) Competition for the colchicine binding site on tubulin. The figure quoted represents the % of ^3H-colchicine bound following co-incubation of test compound and ^3H-cochicine with isolated tubulin. Where ester pro-drugs were used the experiments were carried out in the presence and absence of porcine liver esterase. • (3) Cytotoxicity/growth inhibition assay. This was carried out by the MTT assay. • (4) Permeability (shape-change) assay in endothelial cells. This was carried out using a method based on that of Watts et al. (Anticancer Res., 17, 71–75, (1997)). This involved the diffusion of a fluorescently labelled dextran through a barrier of endothelial cells (HUVEC) grown to confluence on a porous membrane. The effect of agents to alter the shape of these cells results in an increase in the permeability of the cells to the dye. The figure represents the increase in permeability over control cultures when drug is added (30 minutes, 1 mM.). • (5) Experiments to study the anti-vascular effects of these agents were carried out as described previously by our group. (Zhao et al, European Journal of Nuclear Medicine, 26, 231–238 (1999)). The anti-vascular effects of the agents were monitored by either positron emission tomography (PET) or by histologogical examination following treatment of mice bearing T50:80 murine breast tumours, or H460 human lung tumours. • (6) Anti-tumour efficacy of agents was determined in xenografts of H460 human lung cancer. Animals (n=5) were trated either with 5 daily injections and tumour size measured with time following treatment. • (7) The pharmacokinetic profile of agents was determined in mice following injection with drug. Blood was taken at various times following treatment and analysed by HPLC with UV detection. The HPLC conditions were isocratic using a 5 micron C18 BDS column (150×4.6) ad eluting with 75% MeOH in water with a detection wavelength of 290 nm. The retention time of 6.6 mins for 97–64H. • (8) Activation of quinone prodrugs by DT-diaphorase. (AND(P)H:quinone oxidoreductace, EC 1.6.99.2). DT-diaphorase is an enzyme over-expressed in a number of human tumours. We have recently shown this enzyme to be highly expressed in the endothelial cells of blood vessels. This two-electron reducing enzyme can be used to selectively activate prodrugs within cancers which over-express the enzyme. We have therefore synthesised quinone pro-drugs (97–96, 98–40, 98–23, 98–33, 98–24) which, upon reduction by the enzyme, produces an agent (a hydroquinone stilbene) which is cytotoxic.
A series of prodrugs capable of being activated by DT-diaphorase, an enzyme over-expressed in a wide range of human cancers and in endothelial cells of the vasculature were synthesised. The rationale for this is that these agents will be activated in situ by the tumours over-expressing the enzyme, thus giving rise to a high local concentration of active drug. This confers selectivity to this agent. These quinone prodrugs (97–96 and 98–23) were tested for their ability to act as substrates for DT-diaphorase. […] This agent may therefore have a role in the treatment of tumours that over-express DT-diaphorase. Similarly, these agents maybe selectively activated in the endothelial cells of the vasculature, thereby conferring a selective anti-vascular effect.

DT-diaphorase = DT-diaphorase (Homo sapiens, UniProt P15559); experiment: Activation of quinone prodrugs by DT-diaphorase; assay type: biochemical; details: comparable to RH1
DT-diaphorase, sequence (P15559 whole entry, species assumed, the tested form may be a part): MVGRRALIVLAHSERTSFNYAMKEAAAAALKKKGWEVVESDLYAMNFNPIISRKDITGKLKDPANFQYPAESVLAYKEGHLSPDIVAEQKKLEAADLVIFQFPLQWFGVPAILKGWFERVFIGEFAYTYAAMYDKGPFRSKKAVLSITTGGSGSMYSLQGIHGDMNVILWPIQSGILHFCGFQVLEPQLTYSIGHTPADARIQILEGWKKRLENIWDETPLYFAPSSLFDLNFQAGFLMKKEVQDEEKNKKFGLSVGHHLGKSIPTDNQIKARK
Method: (2) Competition for the colchicine binding site on tubulin. The figure quoted represents the % of ^3H-colchicine bound following co-incubation of test compound and ^3H-cochicine with isolated tubulin. Where ester pro-drugs were used the experiments were carried out in the presence and absence of porcine liver esterase. • (3) Cytotoxicity/growth inhibition assay. This was carried out by the MTT assay. • (4) Permeability (shape-change) assay in endothelial cells. This was carried out using a method based on that of Watts et al. (Anticancer Res., 17, 71–75, (1997)). This involved the diffusion of a fluorescently labelled dextran through a barrier of endothelial cells (HUVEC) grown to confluence on a porous membrane. […] The anti-vascular effects of the agents were monitored by either positron emission tomography (PET) or by histologogical examination following treatment of mice bearing T50:80 murine breast tumours, or H460 human lung tumours. • (6) Anti-tumour efficacy of agents was determined in xenografts of H460 human lung cancer. Animals (n=5) were trated either with 5 daily injections and tumour size measured with time following treatment. • (7) The pharmacokinetic profile of agents was determined in mice following injection with drug. Blood was taken at various times following treatment and analysed by HPLC with UV detection. […]

[5] = tested on: cancer cell growth in vitro; experiment: Inhibition of cancer cell growth in vitro (cell line not stated); assay type: cell-based; details: read-out: IC50, ability to inhibit cancer cell growth in vitro
K562 cells = experiment: In situ ultra violet irradiation of dosed K562 cells, IC50; assay type: cell-based, human; details: K562, in situ, within 2 seconds of exposure; read-out: IC50 after exposure to ultraviolet light
Method: Previously, the isomerisation study had been performed ex situ, i.e. in a photochemical reactor. However, it was necessary to illustrate the potential of the process as a real therapy by repeating the isomerization in the presence of the caner cells i.e. in situ. […] Following irradiation, the cells were incubated in the normal way and the IC50 values were determined.
These consisted of i) exposing K562 cells only (i.e. cells which were not dosed with any potential drug candidate) to ultra violet light, ii) preventing K562 cells dosed with drug candidate from being exposed to ultra violet light, and iii) preventing K562 cells only (i.e. cells which were not dosed with any potential drug candidate) from being exposed to ultra violet light. […]

[6] = tested on: cancer cell growth in vitro; details: background; cited from earlier work
[7] = background; cited from earlier work
K562 = K562 cell cycle analysis; assay type: cell-based, human
[8] = Homo sapiens, A2780, read-out: A2780 IC50

COc1cc(C=Cc2ccc(C)c(O)c2)cc(OC)c1OC [Compound 98-21]
IC50 (A2780; [8]): 0.66 nM
IC50 (tubulin): < 1.25 µM
IC50 (HUVEC; Homo sapiens, HUVEC): 9.5 nM
IC50 ([1]; Mus musculus, P388, MTT): 0.935 nM
Colchicine % Inhibition [2]: 1.4%

COc1cc(/C=C\C2=CC(=O)C(C)=CC2=O)cc(OC)c1OC [Compound 98-23]
IC50 (A2780; read-out: A2780 IC50): 2150 nM
IC50 (A2780; read-out: IC50 (nM) A2780): 2150 nM
IC50 [1]: 2180 nM
IC50 ([1]; MTT): 2180 nM
IC50 [3]: 4370 nM
IC50 [4]: 2280 nM
H596/H460 [4]: 0.52
ability to act as substrate for DT-diaphorase (DT-diaphorase): good substrates for the enzyme

COC1=CC(=O)C(CCc2cc(OC)c(OC)c(OC)c2)=CC1=O [Compound 98-24]
IC50 (A2780; Homo sapiens, A2780, read-out: IC50 (nM) A2780): 1630 nM
IC50 ([1]; Mus musculus, P388): 17000 nM
IC50 ([3]; Homo sapiens, NCI-H460): 3080 nM
IC50 ([4]; Homo sapiens, NCI-H596): 1950 nM
H596/H460 [4]: 0.63

COc1ccc(C=Cc2cc(OC)c(OC)c(OC)c2)cc1OCc1ccccc1[N+](=O)[O-] [Compound 98-29]
IC50 (A2780; [8]): 380 nM
IC50 (tubulin): > 100 µM
IC50 (HUVEC; Homo sapiens, HUVEC): 430 nM
IC50 ([1]; Mus musculus, P388, MTT): 450 nM
Colchicine % Inhibition [2]: 53%

COc1cc(/C=C/C2=CC(=O)C(C)=CC2=O)cc(OC)c1OC [Compound 98-33]
IC50 (A2780; read-out: IC50 (nM) A2780): 950 nM
IC50 [1]: < 780 nM
IC50 [3]: 4110 nM
IC50 [4]: 1490 nM
H596/H460 [4]: 0.36

COc1cc(/C=C\c2ccc(C)c(F)c2)cc(OC)c1OC [Compound 98-35H]
IC50 (A2780; read-out: A2780 IC50): 1.44 nM
IC50 (tubulin): 6.25 µM
IC50 (HUVEC): 16 nM
IC50 ([1]; MTT): 3.28 nM
Colchicine % Inhibition [2]: 5%

c1ccc2c(c1)ccc1ccccc12 [phenanthrene]
IC50 [5]: 700 nM

COc1ccc(/C=C/c2cc(OC)c(OC)c(OC)c2)cc1O [trans-CA-4, trans-combretastatin A-4, reference compound]
IC50 (K562 cells): 2 nM
inhibits cell growth [6]: μM range

cis-combretastatin A-4 [Compound 1, reference compound]
water solubility [7]: poor water solubility
% of cells in G0–G1 (K562): 3%
% of cells in G2-M (K562): 92%
% of cells in S phase (K562): 6%
% of cells with DNA content <2 n (K562): 7%
